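In this assay, cells in 96-well plates receive the compound at five concentrations for 48 hours. Endpoints are linearly interpolated between the surrounding concentrations. At the GI50, growth is halved. Definition used: TGI = concentration required for complete inhibition of growth.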
Key:
Assay in all cases: inhibition of tumour cell growth, NCI panel, 48 h
[1] = tested on: 786-0 renal
[2] = tested on: A498 renal
[3] = tested on: A549 NSCLC
[4] = tested on: ACHN renal
[5] = tested on: BT-549 breast
[6] = tested on: CAKI-1 renal
[7] = tested on: CCRF-CEM leukemia
[8] = tested on: COLO 205 colon
[9] = tested on: DU-145 prostate
[10] = tested on: EKVX NSCLC
[11] = tested on: HCC-2998 colon
[12] = tested on: HCT-116 colon
[13] = tested on: HCT-15 colon
[14] = tested on: HL-60(TB) leukemia
[15] = tested on: HOP-62 NSCLC
[16] = tested on: HOP-92 NSCLC
[17] = tested on: HS 578T breast
[18] = tested on: HT29 colon
[19] = tested on: IGROV1 ovarian
[20] = tested on: KM12 colon
[21] = tested on: LOX IMVI melanoma
[22] = tested on: M14 melanoma
[23] = tested on: MALME-3M melanoma
[24] = tested on: MCF7 breast
[25] = tested on: MDA-MB-231 breast
[26] = tested on: MDA-MB-435
[27] = tested on: MOLT-4 leukemia
[28] = tested on: NCI-H226 lung
[29] = tested on: NCI-H23 lung
[30] = tested on: NCI-H460 lung
[31] = tested on: NCI-H522 lung
[32] = tested on: NCI/ADR-RES ovarian
[33] = tested on: OVCAR-4 ovarian
[34] = tested on: OVCAR-5 ovarian
[35] = tested on: OVCAR-8 ovarian
[36] = tested on: PC-3 prostate
[37] = tested on: RXF 393 renal
[38] = tested on: SF-268 CNS
[39] = tested on: SF-295 CNS
[40] = tested on: SF-539 CNS
[41] = tested on: SK-MEL-2 melanoma
[42] = tested on: SK-MEL-28 melanoma
[43] = tested on: SK-MEL-5 melanoma
[44] = tested on: SK-OV-3 ovarian
[45] = tested on: SN12C renal
[46] = tested on: SNB-19 CNS
[47] = tested on: SNB-75 CNS
[48] = tested on: SW-620 colon
[49] = tested on: T-47D breast
[50] = tested on: TK-10 renal
[51] = tested on: U251 CNS
[52] = tested on: UACC-257 melanoma
[53] = tested on: UACC-62 melanoma
[54] = tested on: UO-31 renal
[55] = tested on: K-562 leukemia
[56] = tested on: SR leukemia

CCCCCCNC(=O)Oc1ccc(/C(=C(/C)c2ccc(Cl)cc2)c2ccc(OCCN3CCCC3)cc2)cc1
GI50 [1]: 1780 nM | TGI [1]: 3.29 µM | GI50 [2]: 3930 nM | TGI [2]: 17 µM | GI50 [3]: 1630 nM | TGI [3]: 3.07 µM | GI50 [4]: 1710 nM | TGI [4]: 3080 nM | GI50 [5]: 1700 nM | TGI [5]: 3200 nM | GI50 [6]: 1480 nM | TGI [6]: 2820 nM | GI50 [7]: 1780 nM | TGI [7]: 4.98 µM | GI50 [8]: 1860 nM | TGI [8]: 3.36 µM | GI50 [9]: 1920 nM | TGI [9]: 3.46 µM | GI50 [10]: 2180 nM | TGI [10]: 6.12 µM | GI50 [11]: 1650 nM | TGI [11]: 3.05 µM | GI50 [12]: 1510 nM | TGI [12]: 3100 nM | GI50 [13]: 1500 nM | TGI [13]: 3000 nM | GI50 [14]: 1630 nM | TGI [14]: 3.74 µM | GI50 [15]: 1550 nM | TGI [15]: 2.95 µM | GI50 [16]: 1160 nM | TGI [16]: 2420 nM | GI50 [17]: 1660 nM | TGI [17]: 3.59 µM | GI50 [18]: 1620 nM | TGI [18]: 3.19 µM | GI50 [19]: 1740 nM | TGI [19]: 3280 nM | GI50 [20]: 1980 nM | TGI [20]: 3.74 µM | GI50 [21]: 1590 nM | TGI [21]: 2950 nM | GI50 [22]: 1720 nM | TGI [22]: 3.18 µM | GI50 [23]: 1710 nM | TGI [23]: 3.24 µM | GI50 [24]: 52.5 nM | TGI [24]: 1970 nM | GI50 [25]: 1730 nM | TGI [25]: 3.22 µM | GI50 [26]: 1790 nM | TGI [26]: 3250 nM | GI50 [27]: 1730 nM | TGI [27]: 3.97 µM | GI50 [28]: 2020 nM | TGI [28]: 4.47 µM | GI50 [29]: 1780 nM | TGI [29]: 3.31 µM | GI50 [30]: 1760 nM | TGI [30]: 3200 nM | GI50 [31]: 1780 nM | TGI [31]: 3.37 µM | GI50 [32]: 1680 nM | TGI [32]: 3.3 µM | GI50 [33]: 1840 nM | TGI [33]: 3.75 µM | GI50 [34]: 2730 nM | TGI [34]: 10.1 µM | GI50 [35]: 1720 nM | TGI [35]: 3.36 µM | GI50 [36]: 1520 nM | TGI [36]: 2950 nM | GI50 [37]: 1700 nM | TGI [37]: 3.26 µM | GI50 [38]: 1770 nM | TGI [38]: 3.72 µM | GI50 [39]: 1730 nM | TGI [39]: 3.17 µM | GI50 [40]: 1710 nM | TGI [40]: 3120 nM | GI50 [41]: 1890 nM | TGI [41]: 3.51 µM | GI50 [42]: 1720 nM | TGI [42]: 3.16 µM | GI50 [43]: 1720 nM | TGI [43]: 3.15 µM | GI50 [44]: 1630 nM | TGI [44]: 3.01 µM | GI50 [45]: 1730 nM | TGI [45]: 3.2 µM | GI50 [46]: 1850 nM | TGI [46]: 3.59 µM | GI50 [47]: 1790 nM | TGI [47]: 8.97 µM | GI50 [48]: 1670 nM | TGI [48]: 3130 nM | GI50 [49]: 1310 nM | TGI [49]: 2880 nM | GI50 [50]: 1620 nM | TGI [50]: 3.14 µM | GI50 [51]: 1540 nM | TGI [51]: 2930 nM | GI50 [52]: 1740 nM | TGI [52]: 3.24 µM | GI50 [53]: 1750 nM | TGI [53]: 3.22 µM | GI50 [54]: 1240 nM | TGI [54]: 2520 nM

CCN(CC)c1ccc2c(c1)Oc1nc(N)c(C#N)c(N)c1C2Sc1ccc(F)cc1 (centres undefined)
GI50 [1]: 1560 nM | TGI [1]: 3.02 µM | GI50 [2]: 1930 nM | TGI [2]: 3.91 µM | GI50 [3]: 1790 nM | TGI [3]: 3.34 µM | GI50 [4]: 1500 nM | TGI [4]: 2820 nM | GI50 [5]: 1070 nM | TGI [5]: 2310 nM | GI50 [6]: 1550 nM | TGI [6]: 2910 nM | GI50 [8]: 1220 nM | TGI [8]: 2.67 µM | GI50 [9]: 1650 nM | TGI [9]: 3.01 µM | GI50 [10]: 661 nM | TGI [10]: 2.06 µM | GI50 [11]: 1730 nM | TGI [11]: 3.3 µM | GI50 [12]: 1140 nM | TGI [12]: 2660 nM | GI50 [13]: 984 nM | TGI [13]: 2450 nM | GI50 [15]: 1830 nM | TGI [15]: 3.42 µM | GI50 [17]: 1610 nM | TGI [17]: 4.61 µM | GI50 [18]: 1530 nM | TGI [18]: 3.32 µM | GI50 [19]: 1050 nM | TGI [19]: 2380 nM | GI50 [55]: 308 nM | TGI [55]: > 100 µM | GI50 [20]: 1210 nM | TGI [20]: 2.49 µM | GI50 [21]: 433 nM | TGI [21]: 1530 nM | GI50 [22]: 1490 nM | TGI [22]: 3.01 µM | GI50 [23]: 1670 nM | TGI [23]: 3.09 µM | GI50 [24]: 1000 nM | TGI [24]: 2840 nM | GI50 [26]: 1330 nM | TGI [26]: 2730 nM | GI50 [27]: 315 nM | TGI [27]: > 100 µM | GI50 [29]: 1370 nM | TGI [29]: 2.9 µM | GI50 [30]: 1280 nM | TGI [30]: 2750 nM | GI50 [31]: 1800 nM | TGI [31]: 3.31 µM | GI50 [32]: 2280 nM | TGI [32]: 5.88 µM | GI50 [33]: 1750 nM | TGI [33]: 3.18 µM | GI50 [34]: 1380 nM | TGI [34]: 2.78 µM | GI50 [35]: 1600 nM | TGI [35]: 3.02 µM | GI50 [37]: 1710 nM | TGI [37]: 3.17 µM | GI50 [38]: 1540 nM | TGI [38]: 2.99 µM | GI50 [39]: 1700 nM | TGI [39]: 3.16 µM | GI50 [40]: 1330 nM | TGI [40]: 2620 nM | GI50 [41]: 1690 nM | TGI [41]: 3.1 µM | GI50 [42]: 1520 nM | TGI [42]: 2.89 µM | GI50 [43]: 1760 nM | TGI [43]: 3.17 µM | GI50 [44]: 2040 nM | TGI [44]: 3.63 µM | GI50 [46]: 1410 nM | TGI [46]: 2.74 µM | GI50 [47]: 1490 nM | TGI [47]: 2.82 µM | GI50 [56]: 334 nM | TGI [56]: > 100 µM | GI50 [48]: 1080 nM | TGI [48]: 2410 nM | GI50 [50]: 2690 nM | TGI [50]: 4.21 µM | GI50 [51]: 1230 nM | TGI [51]: 2560 nM | GI50 [52]: 1860 nM | TGI [52]: 3.33 µM | GI50 [53]: 1630 nM | TGI [53]: 3.1 µM | GI50 [54]: 1120 nM | TGI [54]: 2330 nM

From PubChem BioAssay (NCI)
